Experiments:
human TRPC5 [1] = target: T1, human TRPC5 (Homo sapiens, UniProt Q9UL62); experiment: FLIPR calcium assay, inhibition of riluzole-activated TRPC5 calcium response; format: cell-based; conditions: ICLN-1633 cells; riluzole 30 μM stimulation; Fluo-4 calcium response; read-out: Inhibitor Potency Range (FLIPR)
T1 construct: expressed in transfected cells
T1 sequence (Q9UL62 1-973): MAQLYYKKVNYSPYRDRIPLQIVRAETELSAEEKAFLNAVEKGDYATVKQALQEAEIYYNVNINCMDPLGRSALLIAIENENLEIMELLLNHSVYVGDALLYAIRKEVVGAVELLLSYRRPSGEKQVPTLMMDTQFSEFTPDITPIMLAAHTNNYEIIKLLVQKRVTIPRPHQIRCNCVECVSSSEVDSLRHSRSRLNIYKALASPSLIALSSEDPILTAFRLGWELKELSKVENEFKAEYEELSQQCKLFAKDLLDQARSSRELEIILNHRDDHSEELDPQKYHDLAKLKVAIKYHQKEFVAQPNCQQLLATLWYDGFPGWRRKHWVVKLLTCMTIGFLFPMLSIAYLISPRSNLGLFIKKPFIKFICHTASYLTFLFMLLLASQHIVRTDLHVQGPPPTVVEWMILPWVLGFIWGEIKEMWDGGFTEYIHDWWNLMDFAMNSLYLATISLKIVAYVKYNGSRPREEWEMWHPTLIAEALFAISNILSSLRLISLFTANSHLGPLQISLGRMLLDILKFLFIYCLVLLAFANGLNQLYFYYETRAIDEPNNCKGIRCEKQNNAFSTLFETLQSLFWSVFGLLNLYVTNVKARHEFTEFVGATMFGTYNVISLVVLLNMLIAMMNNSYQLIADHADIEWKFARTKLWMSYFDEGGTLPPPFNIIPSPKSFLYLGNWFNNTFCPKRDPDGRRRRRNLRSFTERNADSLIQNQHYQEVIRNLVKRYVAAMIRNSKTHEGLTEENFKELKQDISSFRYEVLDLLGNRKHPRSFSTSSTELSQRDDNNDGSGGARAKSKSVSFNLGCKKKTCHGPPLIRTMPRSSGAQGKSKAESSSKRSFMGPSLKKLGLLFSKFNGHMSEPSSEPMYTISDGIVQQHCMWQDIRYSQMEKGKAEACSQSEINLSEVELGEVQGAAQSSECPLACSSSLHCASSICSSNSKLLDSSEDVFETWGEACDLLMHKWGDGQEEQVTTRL
Method: (§1) ICLN-1633 cells (HEK-TREx hTRPC5) expressing TRPC5 were generated as follows. Commercially available HekTrex-293 cells were seeded at 0.7×10^6 cells/well in a 1×6-well plate 24 hrs prior to transfection using 2 mL cell growth media containing no antibiotics (1× DMEM/high glucose (Hyclone #SH30022.02); 10% fetal bovine serum (Sigma) 2 mM sodium pyruvate, 10 mM HEPES). The human TRPC5 coding sequence (NM_012471 with a silent T478C mutation) was cloned into pcDNA5/TO (Invitrogen; Cat No. V103320) using hygromycin as the resistance gene and the plasmid (SEQ ID NO:1) propagated using T-Rex-293 cells (Invitrogen; Cat No. R71007) following manufacturer's directions. On day 2, 2 μg of plasmid DNA plus 6 μl of Xtreme-GENE HP reagent in Optimem (200 μl total volume) was prepared and incubated for 15 min at room temperature. This plasmid solution was then gently overlayed dropwise onto each well and the plate was gently swirled to mix complex with the media for approximately 30 seconds. Transfected cells were incubated at 37° C. in a 10% CO2 incubator for 24 hrs. The transfected cells were harvested and transferred into 2×150 mm dishes containing cell growth media with no antibiotics at 37° C.
Compounds were made up to, or supplied as a 10 mM stock solution generally using DMSO as the vehicle. 10-point dose response curves were generated using the Echo-550 acoustic dispenser. Compound source plates were made by serially diluting compound stocks to create 10 mM, 1 mM, and 0.1 mM solutions in DMSO into Echo certified LDV plates. The Echo then serially spotted 100% DMSO stock solutions into source dose response plates to generate a 4-fold dilution scheme. 100% DMSO was added to the spotted dose response plates to bring the final volume to 5 μl. 300 nl of the dose response stock plate was then spotted into pre-incubation and stimulation assay plates. 50 μl of pre-incubation buffer and 100 μl of stimulation buffer was then added to the plates resulting in a final assay test concentration range of 30 μM to 0.0001 μM with a final DMSO concentration of 0.3%.
Human ICLN-1633 cells expressing were plated onto 384 well, black poly-D-lysine-coated microplates and maintained in TRPC5 growth media the day prior to use for experiments. TRPC5 expression was induced by the application of 1 μg/mL tetracycline at the time of plating. Media was removed from the plates and 10 μl of 4 μM of Fluo-4 AM (mixed with equal volume of Pluronic F-127) in Earls's Balanced Salt Solution (EBSS) was added to the cells. Cells were incubated at room temperature, protected from light, for 60-90 minutes. After the incubation period, the dye was removed and replaced with 10 μl of EBSS. Cell, pre-incubation and stimulation plates were loaded onto the FLIPR-II and the assay was initiated. The FLIPR measured a 10 second baseline and then added 10 μl of 2× compounds (or controls). Changes in fluorescence were monitored for an additional 5 minutes. After the 5 minute pre-incubation, 20 μl of 2× riluzole (with 1× compound or controls) was added to the cell plate. The final riluzole stimulation concentration in the assay was 30 μM. After the riluzole addition, changes in fluorescence were monitored for an additional 5 minutes. Reduction in the riluzole-activated calcium response relative to control wells was reported as inhibition. A compound-mediated increase in the riluzole response relative to control riluzole response (no test agent present) with no enhancement of calcium entry during preincubation phase was reported as an agonist response.
Compound inhibition of TRPC5 calcium response was determined as follows. After the riluzole addition, fluorescence was monitored for a 5-minute period. For inhibition, the maximum relative fluorescence response (minus the control response of 1 μM of an internal control compound known to maximally block TRPC5 calcium response, the “REF INHIB” in the formula below) was captured and exported from the FLIPR. […]

human TRPC5 [2] = target: T1, human TRPC5; experiment: Automated patch clamp assay (QPatch), antagonist mode; format: cell-based; conditions: HEK-TREx hTRPC5 cells; channel activated with Rosiglitazone 30 μM; normalised to ML-204 block; read-out: Qpatch Potency Range
Method: as §1
The next day selection was initiated to generate a stable pool by adding cell growth media containing 150 μg/mL Hygromycin and 5 μg/mL Blasticidin and cells were allowed to grow. Media with the selection agent was changed every 1-2 days as needed to remove dead cells. After 7 days, the hygromycin concentration was reduced to 75 μg/mL and cells growth was allowed to continue.
Single clones were selected as follows. The stable pool was diluted to 10 cells/mL and seeded (100 μl/well) into 24×96 well plates (˜1 cell/well) and allowed to grow for 7 days in cell growth media. Fresh media (100 μl) was added and the cells allowed to grow for another 1-2 weeks and then stored frozen or used immediately.
The automated electrophysiological assay was carried out at room temperature. On the day of the experiment, TRPC5 cells were cultured according to our Standard Operating Procedure. Briefly, cells were harvested using TrypLE™ Express, re-suspended in serum free medium, added to the automated platform and used within 0.5-3 hours. Internal and external physiological solutions were freshly prepared prior to the assay. The external solution contained: 145 mM NaCl, 4 mM KCl, 2 mM CaCl2, 1 mM MgCl2, 10 mM HEPES, 10 mM glucose, pH 7.4 with NaOH and 310 mOsm/L. The internal solution contained 120 mM L-aspartic acid, 120 mM CsOH·H2O, 20 mM CsCl, 2 mM MgCl2, 8.8 mM CaCl2, 10 mM EGTA, 10 mM HEPES and 2 mM Na2ATP; pH 7.2 with CsOH and 330 mOsm/L. The free internal Ca^2+ concentration was buffered to 1 μM, according to the WCabuf software. The automated electrophysiological platform QPatch 16 from Sophion (Denmark) was used to carry out the compounds profiling. The series resistance and quality of seals were continuously monitored during the experiments. Data were analyzed using Sophion QPatch assay software 5.6 (Odense). Data were normalized using the maximum activation obtained during the pre-compound agonist application as the top value (1.0) and maximum inhibition induced by ML-204 as the bottom value (0.0). IC50 values were calculated using a least squares regression algorithm (Hill equation).
To monitor the ion currents, a voltage ramp from −100 mV to +100 mV, over 300 ms, was applied every 10 seconds, from a holding potential of −60 mV. Antagonist-mode: After recording for a minimum of 60 seconds control period, the EC60 concentration of the TRPC5 agonist, Rosiglitazone (30 μM), was applied to activate the channel. After reaching steady-state, co-application of increasing concentrations of test compound were applied followed by two applications of Rosiglitazone EC60 and a saturating concentration of the specific blocker ML-204 (100 μM).

Structure (SMILES): CN1C(=O)CN([C@H]2CC[C@H](O)C2)C(=O)c2c1nc(Oc1cccc(OC(F)(F)F)c1)n2Cc1ccc(Cl)cc1 (single isomer, unassigned) [Compound 16]
- IC50 (human TRPC5 [1]): 1000 to 10000 nM

Structure (SMILES): C[C@@H](c1ccc(Cl)cc1)n1c(Oc2cccc(F)c2)nc2c1C(=O)N(CCCO)CC(=O)N2C (single isomer, unassigned) [Compound 7]
- IC50 (human TRPC5 [1]): > 10000 nM
- IC50 (human TRPC5 [2]): 1000 to 30000 nM

Structure (SMILES): CN1C(=O)[C@@H](CCO)N(C)C(=O)c2c1nc(Oc1cccc(OC(F)(F)F)c1)n2Cc1ccc(Cl)cc1 (single isomer, unassigned) [Compound 18]
- IC50 (human TRPC5 [1]): > 10000 nM
- IC50 (human TRPC5 [2]): 1 to 1000 nM

Structure (SMILES): C[C@H]1C(=O)N(C)c2nc(Oc3cccc(F)c3)n(Cc3ccc(Cl)cc3)c2C(=O)N1CCCO (single isomer, unassigned) [Compound 20]
- IC50 (human TRPC5 [1]): 1 to 1000 nM
- IC50 (human TRPC5 [2]): 1000 to 30000 nM

Structure (SMILES): CN1C(=O)CN([C@H]2C[C@H](O)C2)C(=O)c2c1nc(Oc1cccc(OC(F)(F)F)c1)n2Cc1ccc(Cl)cc1 [Compound 13]
- IC50 (human TRPC5 [2]): 1000 to 30000 nM

Structure (SMILES): O=C1c2c(nc(Oc3cccc(OC(F)(F)F)c3)n2Cc2ccc(Cl)cc2)N2CCC[C@H]2CN1CCCO (single isomer, unassigned) [Compound 35]
- IC50 (human TRPC5 [1]): 1000 to 10000 nM

Structure (SMILES): CCCCn1c(Oc2cccc(Cl)c2)nc2c1C(=O)N(CCCO)C(=O)[C@@H]1CCCN21 [Compound 32]
- IC50 (human TRPC5 [1]): 1 to 1000 nM

Structure (SMILES): COCCCN1CC(=O)N(C)c2nc(Oc3cccc(OC(F)(F)F)c3)n(Cc3ccc(Cl)cc3)c2C1=O [Compound 8, 1-[(4-chlorophenyl)methyl]-7-(3-methoxypropyl)-4-methyl-2-[3-(trifluoromethoxy)phenoxy]-1H,4H,5H,6H,7H,8H-imidazo[4,5-e][1,4]diazepine-5,8-dione]
- IC50 (human TRPC5 [1]): 1000 to 10000 nM

Structure (SMILES): CN1CCN(CCCO)C(=O)c2c1nc(Oc1cccc(OC(F)(F)F)c1)n2Cc1ccc(Cl)cc1 [Compound 1, 1-[(4-chlorophenyl)methyl]-7-(3-hydroxypropyl)-4-methyl-2-[3-(trifluoromethoxy)phenoxy]-1H,4H,5H,6H,7H,8H-imidazo[4,5-e][1,4]diazepin-8-one]
- IC50 (human TRPC5 [2]): 1000 to 30000 nM

Structure (SMILES): CN1C(=O)CN(CC(O)CO)C(=O)c2c1nc(Oc1cccc(OC(F)(F)F)c1)n2Cc1ccc(Cl)cc1 (centres unmarked) [Compound 9, 1-[(4-chlorophenyl)methyl]-7-(2,3-dihydroxypropyl)-4-methyl-2-[3-(trifluoromethoxy)phenoxy]-1H,4H,5H,6H,7H,8H-imidazo[4,5-e][1,4]diazepine-5,8-dione]
- IC50 (human TRPC5 [2]): 1000 to 30000 nM

Structure (SMILES): CN1C(=O)CN(CCCO)C(=O)c2c1nc(Oc1cccc(OC(F)(F)F)c1)n2Cc1ccc(Cl)cc1 [Compound 2, 1-[(4-chlorophenyl)methyl]-7-(3-hydroxypropyl)-4-methyl-2-[3-(trifluoromethoxy)phenoxy]-1H,4H,5H,6H,7H,8H-imidazo[4,5-e][1,4]diazepine-5,8-dione]
- IC50 (human TRPC5 [1]): 1000 to 10000 nM
- IC50 (human TRPC5 [2]): 1000 to 30000 nM

Structure (SMILES): O=C1c2c(nc(Oc3cccc(OC(F)(F)F)c3)n2Cc2ccc(Cl)cc2)N2CCC[C@@H]2CN1CCCO (single isomer, unassigned) [Compound 34]
- IC50 (human TRPC5 [1]): 1 to 1000 nM

Structure (SMILES): CN1C(=O)CN([C@@H]2CC[C@@H](O)C2)C(=O)c2c1nc(Oc1cccc(OC(F)(F)F)c1)n2Cc1ccc(Cl)cc1 (single isomer, unassigned) [Compound 15]
- IC50 (human TRPC5 [1]): 1 to 1000 nM

Structure (SMILES): CCCCn1c(Oc2cccc(OC(F)(F)F)c2)nc2c1C(=O)N(CCCO)CC(=O)N2C [Compound 3]
- IC50 (human TRPC5 [1]): 1000 to 10000 nM

Structure (SMILES): CN1C(=O)[C@H](CCO)N(C)C(=O)c2c1nc(Oc1cccc(OC(F)(F)F)c1)n2Cc1ccc(Cl)cc1 (single isomer, unassigned) [Compound 17]
- IC50 (human TRPC5 [2]): > 30000 nM

Structure (SMILES): CN1C(=O)CN(CCCO)C(=O)c2c1nc(Oc1cccc(F)c1)n2Cc1ccc(Cl)cc1 [Compound 4]
- IC50 (human TRPC5 [1]): 1000 to 10000 nM

Structure (SMILES): O=C1c2c(nc(Oc3cccc(Cl)c3)n2Cc2ccc(Cl)cc2)N2CCC[C@H]2C(=O)N1CCCO [Compound 33]
- IC50 (human TRPC5 [1]): 1 to 1000 nM

Structure (SMILES): O=C1c2c(nc(Oc3cccc(F)c3)n2Cc2ccc(Cl)cc2)N2CCC[C@H]2C(=O)N1CCCO [Compound 26]
- IC50 (human TRPC5 [1]): 1 to 1000 nM

Structure (SMILES): CN1C(=O)CN(CCO)C(=O)c2c1nc(Oc1cccc(OC(F)(F)F)c1)n2Cc1ccc(Cl)cc1 [Compound 10, 1-[(4-chlorophenyl)methyl]-7-(2-hydroxyethyl)-4-methyl-2-[3-(trifluoromethoxy)phenoxy]-1H,4H,5H,6H,7H,8H-imidazo[4,5-e][1,4]diazepine-5,8-dione]
- IC50 (human TRPC5 [1]): 1000 to 10000 nM
